Test results taken from patent US10168342B2, “Lipid probes and uses thereof” (THE SCRIPPS RESEARCH INSTITUTE, priority 2015, dated 2019).

What was measured:
Assay in all cases: isoTOP-ABPP mapping of AEA-DA-modified peptides in Neuro2a cells
Type in all cases: cell-based
[1] = molecular target: T1, AEA-DA-modified peptides in Neuro2a cells (Mus musculus, UniProt P18242); settings: AEA-DA-modified peptide CTSD P18242 312-330, SEQ ID NO 27; probe 100 μM, 12 replicates
T1 construct: endogenous in cells; host or cells: Neuro2a
T1 sequence (P18242 65-410): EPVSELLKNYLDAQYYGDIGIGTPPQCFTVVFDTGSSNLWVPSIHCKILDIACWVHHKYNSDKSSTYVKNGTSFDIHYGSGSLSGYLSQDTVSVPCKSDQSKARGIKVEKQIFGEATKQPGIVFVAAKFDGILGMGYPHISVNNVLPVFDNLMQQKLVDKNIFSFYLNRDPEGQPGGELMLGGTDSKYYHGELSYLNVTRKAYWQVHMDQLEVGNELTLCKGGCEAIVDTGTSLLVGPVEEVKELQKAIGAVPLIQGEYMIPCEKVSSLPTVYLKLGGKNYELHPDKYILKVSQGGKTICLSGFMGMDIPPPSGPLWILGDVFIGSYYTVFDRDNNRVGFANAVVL

[2] = molecular target: T2, AEA-DA-modified peptides in Neuro2a cells (Mus musculus, UniProt P00375); settings: AEA-DA-modified peptide DHFR P00375 20-34, SEQ ID NO 30; probe 100 μM, 12 replicates
T2 construct: endogenous in cells; host or cells: Neuro2a
T2 sequence (P00375 whole entry): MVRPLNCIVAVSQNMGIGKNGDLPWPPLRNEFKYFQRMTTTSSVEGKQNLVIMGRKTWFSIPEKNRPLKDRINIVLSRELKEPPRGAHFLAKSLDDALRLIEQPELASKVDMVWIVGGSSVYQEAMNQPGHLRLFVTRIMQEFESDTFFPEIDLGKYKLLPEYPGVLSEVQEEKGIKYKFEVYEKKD

[3] = molecular target: T3, AEA-DA-modified peptides in Neuro2a cells (Mus musculus, UniProt Q6PIC6); settings: AEA-DA-modified peptide ATP1A3 Q6PIC6 350-376, SEQ ID NO 18; probe 100 μM, 12 replicates
T3 construct: endogenous in cells; host or cells: Neuro2a

[4] = molecular target: T4, AEA-DA-modified peptides in Neuro2a cells (Mus musculus, UniProt Q9DC61); settings: AEA-DA-modified peptide PMPCA Q9DC61 428-451, SEQ ID NO 88; probe 100 μM, 12 replicates
T4 construct: endogenous in cells; host or cells: Neuro2a
T4 sequence (Q9DC61 34-524): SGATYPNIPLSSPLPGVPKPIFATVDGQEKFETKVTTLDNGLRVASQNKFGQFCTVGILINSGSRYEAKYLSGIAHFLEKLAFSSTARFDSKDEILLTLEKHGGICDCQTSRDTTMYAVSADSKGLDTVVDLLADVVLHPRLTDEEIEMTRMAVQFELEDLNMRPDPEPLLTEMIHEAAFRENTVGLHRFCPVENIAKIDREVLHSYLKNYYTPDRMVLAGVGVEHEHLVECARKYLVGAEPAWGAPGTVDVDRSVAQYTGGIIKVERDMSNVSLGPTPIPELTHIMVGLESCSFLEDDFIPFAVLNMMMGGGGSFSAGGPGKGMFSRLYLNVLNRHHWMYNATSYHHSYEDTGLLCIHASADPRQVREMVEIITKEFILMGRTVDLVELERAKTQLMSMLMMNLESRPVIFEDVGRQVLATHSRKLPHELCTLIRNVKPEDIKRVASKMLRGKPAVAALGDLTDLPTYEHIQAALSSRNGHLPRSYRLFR

[5] = molecular target: T5, AEA-DA-modified peptides in Neuro2a cells (Mus musculus, UniProt Q91WD5); settings: AEA-DA-modified peptide NDUFS2 Q91WD5 36-57, SEQ ID NO 67; probe 100 μM, 12 replicates
T5 construct: endogenous in cells; host or cells: Neuro2a
T5 sequence (Q91WD5 34-463): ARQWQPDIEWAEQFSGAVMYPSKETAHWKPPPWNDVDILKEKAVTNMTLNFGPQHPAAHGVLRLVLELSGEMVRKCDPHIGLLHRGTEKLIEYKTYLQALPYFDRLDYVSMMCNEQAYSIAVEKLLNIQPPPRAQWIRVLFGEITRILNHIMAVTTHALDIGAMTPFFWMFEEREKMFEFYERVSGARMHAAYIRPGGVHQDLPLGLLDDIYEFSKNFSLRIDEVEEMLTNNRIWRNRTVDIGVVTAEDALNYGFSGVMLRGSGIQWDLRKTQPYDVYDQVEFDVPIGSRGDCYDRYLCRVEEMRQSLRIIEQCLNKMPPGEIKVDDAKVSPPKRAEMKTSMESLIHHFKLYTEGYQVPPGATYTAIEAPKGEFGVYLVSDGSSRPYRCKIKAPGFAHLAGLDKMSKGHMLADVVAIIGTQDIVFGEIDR

[6] = molecular target: T6, AEA-DA-modified peptides in Neuro2a cells (Mus musculus, UniProt Q9QUM9); settings: AEA-DA-modified peptide PSMA6 Q9QUM9 103-117, SEQ ID NO 89; probe 100 μM, 12 replicates
T6 construct: endogenous in cells; host or cells: Neuro2a
T6 sequence (Q9QUM9 whole entry): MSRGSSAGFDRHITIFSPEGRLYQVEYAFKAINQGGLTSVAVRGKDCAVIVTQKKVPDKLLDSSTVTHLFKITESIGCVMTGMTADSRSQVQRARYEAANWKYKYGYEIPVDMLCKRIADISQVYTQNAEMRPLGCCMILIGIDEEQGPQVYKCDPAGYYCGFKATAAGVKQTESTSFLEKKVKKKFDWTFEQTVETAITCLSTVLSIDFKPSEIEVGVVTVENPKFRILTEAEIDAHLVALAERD

[7] = molecular target: T7, AEA-DA-modified peptides in Neuro2a cells (Mus musculus, UniProt P53811); settings: AEA-DA-modified peptide PITPNB P53811 32-45, SEQ ID NO 86; probe 100 μM, 12 replicates
T7 construct: endogenous in cells; host or cells: Neuro2a
T7 sequence (P53811 whole entry): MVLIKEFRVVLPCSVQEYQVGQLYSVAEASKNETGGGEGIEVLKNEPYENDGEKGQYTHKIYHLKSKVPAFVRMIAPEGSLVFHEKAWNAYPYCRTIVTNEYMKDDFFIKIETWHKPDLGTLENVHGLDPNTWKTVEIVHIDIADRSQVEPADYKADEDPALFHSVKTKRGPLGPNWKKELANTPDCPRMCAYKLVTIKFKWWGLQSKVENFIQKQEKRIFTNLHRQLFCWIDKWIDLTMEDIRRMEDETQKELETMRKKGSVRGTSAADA

[8] = molecular target: T8, AEA-DA-modified peptides in Neuro2a cells (Mus musculus, UniProt Q99LR1); settings: AEA-DA-modified peptide ABHD12 Q99LR1 263-284, SEQ ID NO 1; probe 100 μM, 12 replicates
T8 construct: endogenous in cells; host or cells: Neuro2a
T8 sequence (Q99LR1 whole entry): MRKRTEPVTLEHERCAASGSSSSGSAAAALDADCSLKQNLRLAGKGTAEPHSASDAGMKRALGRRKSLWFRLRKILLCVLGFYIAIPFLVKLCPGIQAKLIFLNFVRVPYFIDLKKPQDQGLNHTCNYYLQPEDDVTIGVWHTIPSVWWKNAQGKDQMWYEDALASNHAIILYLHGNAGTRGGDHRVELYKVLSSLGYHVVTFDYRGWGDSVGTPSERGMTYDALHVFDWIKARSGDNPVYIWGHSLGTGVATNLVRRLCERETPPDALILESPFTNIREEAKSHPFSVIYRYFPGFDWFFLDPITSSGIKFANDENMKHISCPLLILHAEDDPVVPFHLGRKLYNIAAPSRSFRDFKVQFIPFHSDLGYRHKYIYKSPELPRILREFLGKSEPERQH

[9] = molecular target: T9, AEA-DA-modified peptides in Neuro2a cells (Mus musculus, UniProt P47802); settings: AEA-DA-modified peptide MTX1 P47802 89-104, SEQ ID NO 63; probe 100 μM, 12 replicates
T9 construct: endogenous in cells; host or cells: Neuro2a
T9 sequence (P47802 whole entry): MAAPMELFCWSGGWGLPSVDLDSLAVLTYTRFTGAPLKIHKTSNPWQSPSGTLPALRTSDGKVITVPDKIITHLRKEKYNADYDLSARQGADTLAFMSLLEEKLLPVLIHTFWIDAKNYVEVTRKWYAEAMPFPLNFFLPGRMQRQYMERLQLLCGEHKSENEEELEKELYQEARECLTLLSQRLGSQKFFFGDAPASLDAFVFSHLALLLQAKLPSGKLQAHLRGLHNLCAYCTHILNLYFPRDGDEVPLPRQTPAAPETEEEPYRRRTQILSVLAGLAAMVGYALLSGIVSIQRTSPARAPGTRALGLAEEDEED

[10] = molecular target: T10, AEA-DA-modified peptides in Neuro2a cells (Mus musculus, UniProt Q9DCZ4); settings: AEA-DA-modified peptide APOO Q9DCZ4 187-197, SEQ ID NO 9; probe 100 μM, 12 replicates
T10 construct: endogenous in cells; host or cells: Neuro2a
T10 sequence (Q9DCZ4 24-198): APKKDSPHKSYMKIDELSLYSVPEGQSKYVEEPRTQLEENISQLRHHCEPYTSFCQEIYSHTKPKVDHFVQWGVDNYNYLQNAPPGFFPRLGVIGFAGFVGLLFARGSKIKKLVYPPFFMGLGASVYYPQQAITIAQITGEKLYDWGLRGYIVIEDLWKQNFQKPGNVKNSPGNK

[11] = molecular target: T11, AEA-DA-modified peptides in Neuro2a cells (Mus musculus, UniProt Q8CIV2); settings: AEA-DA-modified peptide ORF61 Q8CIV2 245-263, SEQ ID NO 75; probe 100 μM, 12 replicates
T11 construct: endogenous in cells; host or cells: Neuro2a
T11 sequence (Q8CIV2 whole entry): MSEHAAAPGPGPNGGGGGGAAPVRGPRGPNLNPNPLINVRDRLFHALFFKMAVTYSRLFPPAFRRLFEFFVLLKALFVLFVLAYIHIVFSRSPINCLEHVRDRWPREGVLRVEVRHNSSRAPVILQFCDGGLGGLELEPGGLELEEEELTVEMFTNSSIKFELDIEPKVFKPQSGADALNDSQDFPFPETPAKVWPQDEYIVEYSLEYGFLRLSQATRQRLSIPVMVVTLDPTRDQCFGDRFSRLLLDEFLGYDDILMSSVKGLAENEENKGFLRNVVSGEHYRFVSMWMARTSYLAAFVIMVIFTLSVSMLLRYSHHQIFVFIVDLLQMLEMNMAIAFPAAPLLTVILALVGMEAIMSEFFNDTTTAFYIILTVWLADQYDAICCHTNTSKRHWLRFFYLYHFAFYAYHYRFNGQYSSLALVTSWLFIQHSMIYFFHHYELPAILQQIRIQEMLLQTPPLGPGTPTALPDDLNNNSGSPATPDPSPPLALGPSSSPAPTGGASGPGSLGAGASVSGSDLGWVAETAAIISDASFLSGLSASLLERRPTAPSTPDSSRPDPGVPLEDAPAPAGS

[12] = molecular target: T12, AEA-DA-modified peptides in Neuro2a cells (Mus musculus, UniProt P34884); settings: AEA-DA-modified peptide MIF P34884 13-38, SEQ ID NO 60; probe 100 μM, 12 replicates
T12 construct: endogenous in cells; host or cells: Neuro2a

C#CCCCC1(CC/C=C\C/C=C\C/C=C\CCCC(=O)NCCO)N=N1 [AEA-DA, (5Z,8Z,11Z)-N-(2-hydroxyethyl)-14-(3-(pent-4-yn-1-yl)-3H-diazirin-3-yl)tetradeca-5,8,11-trienamide]
Times observed [1]: 12
Times observed [2]: 4
Times observed [3]: 2
Times observed [4]: 7
Times observed [5]: 3
Times observed [6]: 8
Times observed [7]: 4
Times observed [8]: 2
Times observed [9]: 2
Times observed [10]: 2
Times observed [11]: 4
Times observed [12]: 4
